From PubChem BioAssay AID248 (DTP/NCI, 2004)
Inconclusive results and toxic doses are left out. Cut-off read from the data, not from the text of the source: active = T/C of 150% or more; inactive = T/C below 125%.

System: L1210 leukemia ip in BDF1 mice, survival T/C
Test: NCI In Vivo Anticancer Drug Screen. Data for tumor model L1210 Leukemia (intraperitoneal) in B6D2F1 (BDF1) mice
Settings: endpoint: mean survival time, higher = longer survival
Summary of the method: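 Tumor cells were implanted, animals were treated, and survival was followed. The result divides the treated measurement by the vehicle-control measurement.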

Measured: T/C

O=C1c2cccnc2C(=O)N1Cc1ccccc1
inactive: dose: 100.0 mg/kg/injection, schedule: Q01DX009 (ip), vehicle: saline sonified 103 % of control | dose: 100.0 mg/kg/injection, schedule: Q04DX003 (ip), vehicle: Klucel (hydroxypropylcellulose) (HPC) 107 % of control | dose: 200.0 mg/kg/injection, schedule: Q01DX009 (ip), vehicle: saline sonified 96 % of control | dose: 200.0 mg/kg/injection, schedule: Q04DX003 (ip), vehicle: Klucel (hydroxypropylcellulose) (HPC) 103 % of control | dose: 400.0 mg/kg/injection, schedule: Q01DX009 (ip), vehicle: saline sonified 102 % of control | dose: 400.0 mg/kg/injection, schedule: Q04DX003 (ip), vehicle: Klucel (hydroxypropylcellulose) (HPC) 102 % of control

COS(=O)(=O)CCC[N+](C)(C)C
inactive: dose: 50.0 mg/kg/injection, schedule: Q01DX001 (ip), vehicle: saline 93 % of control
